{
  "source": "paper PMC4499460",
  "about": "(The Journal of organic chemistry, 2015)",
  "origin": "cited, not measured here",
  "conditions": "in 1 N H2SO4",
  "data": [
    {"smiles": "C=C[C@H]1CN2CC[C@H]1C[C@H]2[C@H](O)c1ccnc2ccc(OC)cc12.O=S(=O)(O)O", "note": "[quinine bisulfate]", "values": [
      {"measurement": "ϕf of quantum yield reference", "value": 0.54}
    ]}
  ]
}
